In PubChem BioAssay (NCI):
Values joined by “and” are separate entries in the source; they are usually repeats but may differ in a detail not shown here. Equal entries are not always repeated.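 A five-concentration, 48-hour dose response in 96-well plates underlies each endpoint, interpolated linearly between surrounding concentrations. At the GI50, growth is halved. The concentration for full growth arrest is given as TGI.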

Legend:
Experiment in all cases: NCI anticancer screen, dose series, 48 h
CCRF-CEM leukemia = tested on: CCRF-CEM leukemia
M14 melanoma = tested on: M14 melanoma
NCI-H226 lung = tested on: NCI-H226 lung
NCI-H23 lung = tested on: NCI-H23 lung
OVCAR-3 ovarian = tested on: OVCAR-3 ovarian
OVCAR-4 ovarian = tested on: OVCAR-4 ovarian
OVCAR-5 ovarian = tested on: OVCAR-5 ovarian
PC-3 prostate = tested on: PC-3 prostate
RPMI-8226 leukemia = tested on: RPMI-8226 leukemia
T-47D breast = tested on: T-47D breast

SMILES	GI50 (CCRF-CEM leukemia)	TGI (CCRF-CEM leukemia)	GI50 (M14 melanoma)	TGI (M14 melanoma)	GI50 (NCI-H226 lung)	TGI (NCI-H226 lung)	GI50 (NCI-H23 lung)	TGI (NCI-H23 lung)	GI50 (OVCAR-3 ovarian)	TGI (OVCAR-3 ovarian)	GI50 (OVCAR-4 ovarian)	TGI (OVCAR-4 ovarian)	GI50 (OVCAR-5 ovarian)	TGI (OVCAR-5 ovarian)	GI50 (PC-3 prostate)	TGI (PC-3 prostate)	GI50 (RPMI-8226 leukemia)	GI50 (T-47D breast)	TGI (T-47D breast)	TGI (RPMI-8226 leukemia)
O=C(/C=C/c1ccccc1)Nc1ncc(Cc2ccccc2Cl)s1	0.36 µM	> 100 µM	0.236 µM	> 100 µM	0.35 µM	> 100 µM	0.708 µM	> 100 µM	0.226 µM	0.63 µM	> 100 µM	> 100 µM	0.511 µM	> 100 µM	0.409 µM	> 100 µM	0.335 µM	0.513 µM	> 100 µM	
CN(C)Cc1cc(C(F)(F)F)ccc1C(O)(c1ccccc1)c1ccccc1		28.9 µM		25.3 µM		31.1 µM		79.3 µM		> 100 µM		37.5 µM		36.9 µM		36 µM			47.3 µM	21.5 µM
CN(C)CCC(=O)N1C/C(=C\c2ccc(Cl)c(Cl)c2)C(=O)/C(=C/c2ccc(Cl)c(Cl)c2)C1		0.738 µM		0.979 µM		1.86 µM		1.5 µM		0.93 µM		0.777 µM		1.69 µM		0.398 µM			2.48 µM	0.485 µM
CNC(=O)OCc1nc(SSC(C)(C)C)n(C)c1COC(=O)NC		4.54 µM		4.13 µM		28.3 µM		8.11 µM		4.81 µM		4.3 µM		21 µM		21 µM			7.4 µM	8.92 µM
COc1ccc2c(c1)NC1=C(C(=O)OC1)C2c1cc(OC)c(OC)c(OC)c1 (configuration not stated)	< 0.01 µM	> 100 µM	< 0.01 µM	> 100 µM	< 0.01 µM	> 100 µM	< 0.01 µM	> 77 µM	< 0.01 µM	< 0.01 µM	< 0.0375 µM	> 100 µM	< 0.01 µM	> 100 µM	< 0.01 µM	> 100 µM	< 0.01 µM	25.6 µM	> 100 µM	> 100 µM
C=CC(=O)N1CCC(Oc2cc3c(Nc4ccc(Cl)c(Cl)c4F)ncnc3cc2OC)CC1	2.33 µM and 3.37 µM	55.9 µM and > 10 µM	4 µM and 3.1 µM	20.2 µM and > 10 µM	1.84 µM and 0.944 µM	16.2 µM and > 10 µM	4.52 µM and 3.18 µM	21.7 µM and > 10 µM	2.63 µM and 1 µM	16.5 µM and > 8.17 µM	2.65 µM and 2.56 µM	31.5 µM and > 10 µM	4.93 µM and 3.03 µM	39 µM and > 10 µM	7.66 µM and 2.95 µM	24.5 µM and > 10 µM	6.49 µM and 3.93 µM	< 0.01 µM and 0.0178 µM	25.9 µM and > 10 µM	42.6 µM and > 10 µM
CC(=O)OC1OC([C@H]2c3cccc(O)c3C(=O)c3c(O)cc(C)cc32)C(O)C(O)C1O (some centres not stated)	0.444 µM	2.25 µM	< 0.0214 µM	3.85 µM	< 0.01 µM	0.0455 µM	< 0.0161 µM		0.029 µM	0.0885 µM	< 0.0402 µM	> 89.2 µM	< 0.0296 µM	4.71 µM		1.09 µM	0.0779 µM	0.0319 µM	> 41.1 µM	0.2 µM
CS(=O)(=O)CCNCc1coc(-c2ccc3ncnc(Nc4ccc(OCc5ccccc5)cc4)c3c2)c1	4.92 µM	14.5 µM	4.44 µM	9.11 µM	> 12.8 µM	> 25 µM	9.18 µM	> 25 µM	3.46 µM	13.7 µM	5.94 µM	> 25 µM	4.22 µM	11.7 µM	8.95 µM	> 25 µM	4.86 µM	3.57 µM	8.03 µM	11.6 µM
O=C1C=CC(=O)C2C1C1(Cl)C(Cl)=C(Cl)C2(Cl)C1(Cl)Cl (configuration not stated)	3.76 µM	> 100 µM	3.35 µM	13.3 µM	10.8 µM	49.1 µM	4.85 µM	26.3 µM	2.03 µM	5.08 µM	7.38 µM	> 100 µM	12.4 µM	31.1 µM	2.73 µM	20 µM	4.78 µM	4.95 µM	22.7 µM	> 100 µM
CCOc1cc(C(C)(C)C)ccc1C1=N[C@H](c2ccc(Cl)cc2)[C@H](c2ccc(Cl)cc2)N1C(=O)N1CCN(CC#Cc2cccc3c2CN([C@@H]2CCC(=O)NC2=O)C3=O)CC1	0.023 µM	> 100 µM	1.46 µM	> 47.3 µM	0.112 µM	4.33 µM	8.14 µM	> 100 µM	2.81 µM	15.9 µM	0.101 µM	> 100 µM	4.5 µM	> 54.3 µM	0.085 µM	18.4 µM	2.3 µM	0.0431 µM	12.9 µM	> 100 µM
CCN(CC)CCCC(CCl)Nc1ccnc2cc(Cl)ccc12 (configuration not stated)	13.7 µM and 16.9 µM	39.7 µM and 51.5 µM	2.13 µM and 2.39 µM	4.38 µM and 4.92 µM	34.7 µM and 3.99 µM	85.2 µM and > 39.1 µM	17.9 µM and 22.1 µM	38.3 µM and > 60.2 µM	10.9 µM and 6.23 µM	34.7 µM and 28 µM	35.8 µM and 30.9 µM	> 100 µM	11.4 µM and 23.5 µM	28.6 µM and > 61.3 µM	27.2 µM and 34.9 µM	> 100 µM	12.2 µM	49.2 µM and 34.1 µM	> 100 µM	34.4 µM
Nc1n[nH]c2cccc(C#Cc3cccc(NC(=O)c4cccc(C(F)(F)F)c4)c3)c12	2.69 µM	15.9 µM	1.88 µM	10 µM	0.86 µM	20.3 µM	2.86 µM	15.8 µM	5.07 µM	17.3 µM	3.67 µM	17.7 µM	2.21 µM	14 µM	3.96 µM	14.6 µM	3.44 µM	1.81 µM	8.1 µM	21.5 µM
